Assays:
[1] = molecular target: T1, Human KIF18A (amino acid sequence 1-417) (Homo sapiens, UniProt Q8NI77); assay: Enzyme activity detection experiment (ADP-Glo, KIF18A with tubulin and ATP); type: biochemical; details: tubulin 60 μg/mL, ATP 25 μM, KIF18A protein 2.5 nM, 120 minutes at ambient temperature, ADP-Glo chemiluminescence
T1 construct: purchased Viva Biotech (Shanghai) Ltd
Experimental: Materials: Human KIF18A (amino acid sequence 1-417) was obtained from Viva Biotech (Shanghai) Ltd., and the ADP-Glo™ protein kinase kit was acquired from Promega, USA. Tubulin was sourced from Cytoskeleton, USA, while a 384-well assay plate and the Envision multifunctional microplate reader were obtained from PerkinElmer, USA.
Enzyme activity detection: The compound powder in DMSO was firstly dissolved to prepare a 10 mM stock solution. Next, gradient dilutions were prepared in the microplate to achieve final concentrations of […]. Sequentially, 2.5 μL of tubulin (60 μg/mL), the compound, ATP (25 μM), and KIF18A protein (2.5 nM) were added to each well, and the reaction was incubated at ambient temperature for 120 minutes. After the reaction, 10 μL of ADP-Glo™ reagent was added to each well and incubated at ambient temperature for 30 minutes. Subsequently, 20 μL of detection reagent was added to each well and incubated for an additional 30 minutes in the dark. Finally, chemiluminescence detection was performed using the PerkinElmer Envision multifunctional microplate reader.

[2] = tested on: OVCAR3 cells; assay: Cell proliferation activity test, OVCAR3 (CyQUANT Direct); type: cell-based; details: Homo sapiens, OVCAR-3, 72 h, 3 days incubation, CyQUANT fluorescence detection, read-out: OVCAR-3 Cell Viability_IC50_nM
Experimental: Materials and Cells: OVCAR3 cells were purchased from Nanjing Cobioer Biosciences Co., Ltd. RPMI-1640 medium, fetal bovine serum, and the CyQUANT Direct Cell Proliferation Assay kit were purchased from Thermo Fisher Scientific, USA; 96-well cell culture plates were sourced from Corning, USA.
Cell Culture: Culture OVCAR3 cells with RPMI-1640 medium containing […] and incubate them in a […] incubator at 37° C. Only cells in the logarithmic growth phase can be used for the test.
Inoculate OVCAR3 cells into a 96-well cell culture plate at 90 μL per well and incubate overnight in a […] incubator at 37° C. Dissolve the compound powder in DMSO to prepare a stock solution of 10 mM. Then perform gradient dilution for the compounds in the microplate to achieve a final concentration of 0-10 μM. Add 10 μL of cell culture medium containing compounds to each well to make the final DMSO content 0.20%. Incubate the cell plates in a […] incubator at 37° C. for 3 days. Add 100 μL of CyQUANT detection reagent to each well, react at 37° C. for 60 min, and perform fluorescence detection using the PerkinElmer Envision.

T1 sequence (Q8NI77 1-417): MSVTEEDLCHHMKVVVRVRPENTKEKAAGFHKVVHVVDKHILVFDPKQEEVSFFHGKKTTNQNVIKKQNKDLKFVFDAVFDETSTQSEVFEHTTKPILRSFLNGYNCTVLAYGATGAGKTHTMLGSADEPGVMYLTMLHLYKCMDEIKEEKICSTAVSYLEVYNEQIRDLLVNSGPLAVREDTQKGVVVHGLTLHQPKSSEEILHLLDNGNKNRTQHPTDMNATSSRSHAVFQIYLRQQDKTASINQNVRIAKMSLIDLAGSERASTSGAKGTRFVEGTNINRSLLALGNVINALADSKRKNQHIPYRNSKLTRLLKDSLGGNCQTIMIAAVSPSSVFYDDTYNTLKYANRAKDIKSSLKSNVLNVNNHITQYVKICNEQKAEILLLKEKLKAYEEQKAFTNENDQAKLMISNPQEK
T1 sequence (Q2XVP4 whole entry partner): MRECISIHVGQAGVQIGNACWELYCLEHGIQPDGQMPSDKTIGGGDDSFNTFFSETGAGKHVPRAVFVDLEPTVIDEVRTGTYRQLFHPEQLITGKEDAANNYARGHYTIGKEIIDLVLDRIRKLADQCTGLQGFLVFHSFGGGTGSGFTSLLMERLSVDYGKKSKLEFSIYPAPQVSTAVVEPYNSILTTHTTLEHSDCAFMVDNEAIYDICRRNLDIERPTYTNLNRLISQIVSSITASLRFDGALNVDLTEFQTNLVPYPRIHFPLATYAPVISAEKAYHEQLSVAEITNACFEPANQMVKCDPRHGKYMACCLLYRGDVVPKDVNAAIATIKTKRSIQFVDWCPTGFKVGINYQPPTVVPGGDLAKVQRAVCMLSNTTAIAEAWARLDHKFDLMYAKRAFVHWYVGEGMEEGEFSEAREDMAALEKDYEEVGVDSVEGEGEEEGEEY
T1 sequence (P02554 whole entry partner): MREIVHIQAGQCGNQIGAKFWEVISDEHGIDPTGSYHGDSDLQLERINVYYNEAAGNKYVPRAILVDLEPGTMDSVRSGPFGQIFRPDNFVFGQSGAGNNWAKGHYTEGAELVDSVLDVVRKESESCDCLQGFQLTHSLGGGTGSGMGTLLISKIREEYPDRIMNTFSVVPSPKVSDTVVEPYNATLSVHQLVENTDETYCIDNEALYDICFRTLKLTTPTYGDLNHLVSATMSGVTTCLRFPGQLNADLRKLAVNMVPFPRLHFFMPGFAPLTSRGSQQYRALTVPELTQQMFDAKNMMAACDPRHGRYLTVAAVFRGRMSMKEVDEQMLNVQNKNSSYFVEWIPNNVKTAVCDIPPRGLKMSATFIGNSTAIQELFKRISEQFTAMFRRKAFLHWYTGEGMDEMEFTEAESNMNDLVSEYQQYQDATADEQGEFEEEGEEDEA

Compound | IC50 [1] | IC50 [2]
CC(C)(CO)S(=O)(=O)Nc1ccc(-n2cc(-c3cc(N4CCC(F)(F)CC4)c4ncccc4c3)nn2)c(N2CCC3(CC2)CC3)c1 [Example 101, N-(4-(4-(8-(4,4-difluoropiperidin-1-yl)quinolin-6-yl)-1H-1,2,3-triazol-1-yl)-3-(6-azaspiro[2.5]octan-6-yl)phenyl)-1-hydroxy-2-methylpropane-2-sulfonamide] | 320 nM | 
Cc1cc2nc(-c3ccc(NS(=O)(=O)CCO)cc3N3CCC4(CC3)CC4)[nH]c2c(N2CCC(F)(F)CC2)n1 [Example 106, N-(4-(4-(4,4-difluoropiperidin-1-yl)-6-methyl-3H-imidazo[4,5-c]pyridin-2-yl)-3-(6-azaspiro[2.5]octan-6-yl)phenyl)-2-hydroxyethane-1-sulfonamide] | 210 nM | 
Cc1cc(-c2cn(-c3ccc(NS(=O)(=O)CCO)cc3N3CCC4(CC3)CC4)nn2)nc(N2CC3CC2CO3)n1 (stereo not shown) [Example 47, N-(4-(4-(2-(2-oxa-5-azabicyclo[2.2.1]heptan-5-yl)-6-methylpyrimidin-4-yl)-1H-1,2,3-triazol-1-yl)-3-(6-azaspiro[2.5]octan-6-yl)phenyl)-2-hydroxyethane-1-sulfonamide] | 64 nM | 37 nM
O=S(=O)(CCO)Nc1ccc(-n2cc(-c3cc(OCC4CCOC4)nc(N4CCC(F)(F)CC4)n3)nn2)c(N2CCC3(CC2)CC3)c1 (stereo not shown) [Example 97, N-(3-(6-azaspiro[2.5]octan-6-yl)-4-{4-[2-(4,4-difluoropiperidin-1-yl)-6-[(oxolan-3-yl)methoxy]pyrimidin-4-yl]-1-1,2,3-triazol-1-yl}phenyl)-2-hydroxyethane-1-sulfonamide] | 234 nM | 
O=S(=O)(CCO)Nc1ccc(-n2cc(-c3cc(OC4CCOC4)nc(N4CCC(F)(F)CC4)n3)nn2)c(N2CCC3(CC2)CC3)c1 (stereo not shown) [Example 96, N-(3-{6-azaspiro[2.5]octan-6-yl}-4-{4-[2-(4,4-difluoropiperidin-1-yl)-6-(oxolan-3-yloxy)pyrirmidin-4-yl]-1H-1,2,3-triazol-1-yl}phenyl)-2-hydroxyethane-1-sulfonamide] | 117 nM | 
O=S(=O)(CCO)Nc1ccc(-n2cc(-c3cc(OCCO)nc(N4CCC(F)(F)CC4)n3)nn2)c(N2CCC3(CC2)CC3)c1 [Example 95, N-(3-{6-azaspiro[2.5]octan-6-yl}-4-{4-[2-(4,4-difluoropiperidin-1-yl)-6-(2-hydroxyethoxy)pyrimidin-4-yl]-1H-1,2,3-triazol-1-yl}phenyl)-2-hydroxyethane-1-sulfonamide] | 73 nM | 7 nM
C[C@@H](CO)S(=O)(=O)Nc1ccc(-n2cc(-c3cc(N4CCC(F)(F)CC4)c4ncccc4c3)nn2)c(N2CCC3(CC2)CC3)c1 [Example 100, (2S)—N-(3-{6-azaspiro[2.5]octan-6-yl}-4-{4-[8-(4,4-difluoropiperidin-1-yl)quinolin-6-yl]-1H-1,2,3-triazol-1-yl}phenyl)-1-hydroxypropane-2-sulfonamide] | 187 nM | 
Cc1ccc2cc(-c3cn(-c4ccc(NS(=O)(=O)CCO)cc4N4CCC5(CC4)CC5)nn3)c(F)c(N3CCC(F)(F)CC3)c2n1 [Example 75, N-(3-{6-azaspiro[2.5]octan-6-yl}-4-{4-[8-(4,4-difluoropiperidin-1-yl)-7-fluoro-2-methylquinolin-6-yl]-1H-1,2,3-triazol-1-yl}phenyl)-2-hydroxyethane-1-sulfonamide] | > 3000 nM | 300 nM
COc1cc(-c2nnc(-c3ccc(NS(=O)(=O)C(C)(C)CO)cc3N3CCC4(CC3)CC4)o2)cc(N2CCC(F)(F)CC2)n1 [Example 105, N-(4-(5-(2-(4,4-difluoropiperidin-1-yl)-6-methoxypyridin-4-yl)-1,3,4-oxadiazol-2-yl)-3-(6-azaspiro[2.5]octan-6-yl)phenyl)-1-hydroxy-2-methylpropane-2-sulfonamide] | 62 nM | 
Cc1cc(-c2cn(-c3ccc(NS(=O)(=O)CCO)cc3N3CCC4(CC3)CC4)nn2)nc(C2=COCCO2)n1 [Example 38, N-(4-(4-(2-(5,6-dihydro-1,4-dioxin-2-yl)-6-methylpyrimidin-4-yl)-1H-1,2,3-triazol-1-yl)-3-(6-azaspiro[2.5]octan-6-yl)phenyl)-2-hydroxyethane-1-sulfonamide] | 452 nM | 424 nM
COc1cc(-c2nnc(-c3ccc(NS(=O)(=O)C(C)CO)cc3N3CCC4(CC3)CC4)o2)cc(N2CCC(F)(F)CC2)n1 (stereo not shown) [Example 102, N-(4-(5-(2-(4,4-difluoropiperidin-1-yl)-6-methoxypyridin-4-yl)-1,3,4-oxadiazol-2-yl)-3-(6-azaspiro[2.5]octan-6-yl)phenyl)-1-hydroxypropane-2-sulfonamide] | 60 nM | 
Cc1cc(-c2nnc(-c3ccc(NS(=O)(=O)C(C)CO)cc3N3CCC4(CC3)CC4)o2)cc(N2CCC(F)(F)CC2)n1 (stereo not shown) [Example 103, N-(4-(5-(2-(4,4-difluoropiperidin-1-yl)-6-methylpyridin-4-yl)-1,3,4-oxadiazol-2-yl)-3-(6-azaspiro[2.5]octan-6-yl)phenyl)-1-hydroxypropane-2-sulfonamide] | 73 nM | 
Cc1cc(-c2nnc(-c3ccc(NS(=O)(=O)C(C)(C)CO)cc3N3CCC4(CC3)CC4)o2)cc(N2CCC(F)(F)CC2)n1 [Example 104, N-(4-(5-(2-(4,4-difluoropiperidin-1-yl)-6-methylpyridin-4-yl)-1,3,4-oxadiazol-2-yl)-3-(6-azaspiro[2.5]octan-6-yl)phenyl)-1-hydroxy-2-methylpropane-2-sulfonamide] | 83 nM | 
Cc1cc(-c2cc(-c3ccc(NS(=O)(=O)CCO)cc3N3CCC4(CC3)CC4)n[nH]2)nc(N2CCC(F)(F)CC2)n1 [Example 6, N-(4-(5-(2-(4,4-difluoropiperidin-1-yl)-6-methylpyrimidin-4-yl)-1H-pyrazol-3-yl)-3-(6-azaspiro[2.5]octan-6-yl)phenyl)-2-hydroxyethane-1-sulfonamide] | 1090 nM | 257 nM
C[C@H](CO)S(=O)(=O)Nc1ccc(-n2cc(-c3cc(N4CCC(F)(F)CC4)c4ncccc4c3)nn2)c(N2CCC3(CC2)CC3)c1 [Example 99, (2R)—N-(3-(6-azaspiro[2.5]octan-6-yl)-4-{4-[8-(4,4-difluoropiperidin-1-yl)quinolin-6-yl]-1H-1,2,3-triazol-1-yl}phenyl)-1-hydroxypropane-2-sulfonamide] | 214 nM | 
CCC(CO)S(=O)(=O)Nc1ccc(-n2cc(-c3cc(C)nc(N4CCC(F)(F)CC4)n3)nn2)c(N2CCC3(CC2)CC3)c1 (stereo not shown) [Example 98, N-(3-{6-azaspiro[2.5]octan-6-yl}-4-{4-[2-(4,4-difluoropiperidin-1-yl)-6-methylpyrimidin-4-yl]-1H-1,2,3-triazol-1-yl}phenyl)-1-hydroxybutane-2-sulfonamide] | 154 nM | 
Cc1cc(-c2cn(-c3ccc(NS(=O)(=O)CCO)cc3N3CCC4(CC3)CC4)nn2)nc(C2COCCO2)n1 (stereo not shown) [Example 40, N-(4-(4-(2-(1,4-dioxan-2-yl)-6-methylpyrimidin-4-yl)-1H-1,2,3-triazol-1-yl)-3-(6-azaspiro[2.5]octan-6-yl)phenyl)-2-hydroxyethane-1-sulfonamide] | > 3000 nM | 411 nM
Cc1cc(-c2cc(-c3ccc(NS(=O)(=O)CCO)cc3N3CCC4(CC3)CC4)on2)nc(N2CCC(F)(F)CC2)n1 [Example 5, N-(4-(3-(2-(4,4-difluoropiperidin-1-yl)-6-methylpyrimidin-4-yl)isoxazol-5-yl)-3-(6-azaspiro[2.5]octan-6-yl)phenyl)-2-hydroxyethane-1-sulfonamide] | 1050 nM | 389 nM
